Results on 85 compounds are retold here after PubChem BioAssay AID1645868 (Buhrlage Lab, Dana-Farber Cancer Institute and Novartis …, 2021).

Activity calls are given as the source filed them.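 How the source made its calls: active means maximal percent inhibition of the deubiquitinase OTUD3 of at least 30% across the tested doses; inactive means the rest.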

This assay addresses OTU domain-containing protein 3 (Homo sapiens) (UniProt Q5T2D3). The assay is described as follows: Validation of screening hits, potency titration, in vitro enzymatic, OTU domain-containing protein 3 DUB inhibitors (AID 1645868). The conditions noted are these: purified OTUD3, ubiquitin-rhodamine cleavage fluorescence, 2 h.

Sequence of OTU domain-containing protein 3 (Homo sapiens) (Q5T2D3 whole entry, looked up, the tested form may be a part): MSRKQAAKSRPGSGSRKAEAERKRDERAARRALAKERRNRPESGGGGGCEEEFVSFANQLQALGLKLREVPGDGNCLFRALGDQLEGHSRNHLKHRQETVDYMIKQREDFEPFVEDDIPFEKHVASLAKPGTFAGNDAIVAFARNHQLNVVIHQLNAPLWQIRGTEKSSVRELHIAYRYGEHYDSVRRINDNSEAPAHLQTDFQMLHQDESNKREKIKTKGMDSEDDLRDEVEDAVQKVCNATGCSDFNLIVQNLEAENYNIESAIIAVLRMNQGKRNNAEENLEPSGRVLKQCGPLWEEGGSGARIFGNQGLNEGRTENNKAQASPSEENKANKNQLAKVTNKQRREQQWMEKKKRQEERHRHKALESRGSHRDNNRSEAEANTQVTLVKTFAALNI

For orientation: IC50 means the point on the concentration scale where inhibition reaches its midpoint. Turning to `COC1C(O)=C2C(=O)O/C(C)=C/C=C/C=C/C=C/CC(c3ccccc3)NC(=O)/C=C/C=C/C=C\C=C\C2(C)C1O` (stereo not given), the IC50 is > 50 µM (inactive).

For `c1csc(-c2nc(Nc3ccc4c(c3)CCC4)c3ccccc3n2)c1`, the IC50 was > 50 µM (inactive). The result for `COc1ccc(NC(=O)Cn2cc(C(=O)c3ccc(C)cc3)c(=O)c3ccccc32)cc1` reads 11.4 µM; that for `CN1C(=O)c2cc(NC(=O)c3ccccc3Cl)ccc2Oc2ccccc21`, > 50 µM (inactive). As to `CC1(C(=O)NCc2ccccc2)Cn2c(cc3ccccc32)C(=O)N1Cc1ccccc1` (stereo not given), the IC50 was > 50 µM (inactive).

On to `CCCc1nc2c(sc3nc4c(cc32)COC(C)(C)C4)c(=O)n1CC(=O)Nc1ccccc1C`, for which the half-inhibitory concentration (IC50) was 30 µM. Then `CCc1ccc2[nH]c3c(c(=O)c2c1)CN(CC(=O)NCc1ccc2c(c1)OCO2)CC3`, with 28.6 µM.

For `COc1ccc(-c2cc(C(=O)N3CCN(c4ccc([N+](=O)[O-])cc4)CC3)[nH]n2)cc1`, the IC50 was > 50 µM (inactive).

As to `Cc1ccc2cc(CNc3ccccc3)c(=O)n(CC(=O)Nc3ccccc3C)c2c1`, the IC50 is 26 µM.

For the compound `COc1ccc(CC(=O)NCc2ccc3[nH]c(C)cc3c2)cc1`, the IC50 was > 50 µM (inactive). Then `CSc1cccc(NC(=O)CCc2ccc3nc(NC(C)=O)sc3c2)c1`, with > 50 µM (inactive); and `Cc1nn(-c2ccc(F)cc2)cc1-c1noc(C(=O)NCc2ccccn2)n1`, with 25.1 µM. Then `Cc1oc(C2CC2)cc1C(=O)N1CCC2(CC1)CC1(CO2)Nc2ccccc2-n2cccc21` (stereo not given), with > 50 µM (inactive); and `COc1ccc(NCc2nc3ccccc3n2Cc2ccccc2)cc1`, with > 50 µM (inactive).

In the case of `O=S(=O)(c1ccc2c(c1)OCCO2)N(Cc1ccccc1)Cc1nnc(-c2ccccc2)o1`, the IC50 is > 50 µM (inactive). The result for `Cc1noc(NS(=O)(=O)c2ccc(NC(=O)CSc3ccc4ccccc4c3)cc2)c1C` reads > 50 µM (inactive); that for `O=C1NC(=O)/C(=C/c2ccc(OC(=O)c3ccc(Cl)cc3Cl)cc2)N1`, 11 µM.

For `CC(=O)Nc1cc2cc(-n3cccc3)ccc2oc1=O`, the IC50 was > 50 µM (inactive).

As for `COc1ccc(C(=O)Nc2ccc3c(c2)C(=O)N(C)c2ccccc2O3)cc1`, the IC50 is > 50 µM (inactive). With `Cc1cc(C)cc(NC(=O)CSc2ccc(-c3ccncc3)nn2)c1`, the IC50 was > 50 µM (inactive).

Consider `Nc1ncnc(SCc2ccc(Cl)cc2)n1`, for which the IC50 was 29.3 µM. Then `O=c1c2ccccc2c(-c2nc(-c3ccncc3)no2)cn1-c1ccccc1`, with > 5 µM (inactive); and `Cc1cccc(NC(=O)c2ccn(COc3ccc(F)cc3F)n2)c1C`, with > 50 µM (inactive); and `Cc1cc(C(F)(F)F)n(-c2ccc(NC(=O)Nc3cccc(C(F)(F)F)c3)cc2)n1`, with 11.4 µM. For `CCC(=O)Nc1ccc(-c2nc(Cn3cc(C)cn3)c(C)o2)cc1`, the IC50 is > 50 µM (inactive). The result for `O=C(Cn1cc(C(=O)C(F)(F)F)c2ccccc21)N1CCc2ccccc21` reads 4.98 µM; that for `Cc1c(C(=O)NCc2cccc(Br)c2)oc2c1-c1[nH]ncc1CC2`, 48.2 µM. Then `CCC1(C)Cc2c(sc3nc(SCC(=O)Nc4ccc(C(C)=O)cc4)nc(N)c23)CO1` (stereo not given), with 32.4 µM; and `O=C(CN1C=NC2=NS(=O)(=O)c3ccccc3N21)Nc1cc(F)ccc1F`, with 31.8 µM; and `O=C(CCc1c[nH]c2ccccc12)Nc1ccc(N2CCOCC2)cc1`, with 30.9 µM. Then `Cc1ccc(C(C)C)cc1OCCOCCN1CCNCC1`, with > 50 µM (inactive); and `COc1cccc(-n2cnc3cc(C(=O)NC4CC4)ccc3c2=O)c1`, with > 50 µM (inactive). In the case of `O=c1[nH]c2ccccc2cc1CN(Cc1ccco1)S(=O)(=O)c1ccc(F)cc1`, the IC50 is > 50 µM (inactive). Then `O=C(c1ccc2ncccc2c1)N1CCC2(C1)Nc1cccnc1NC2=NC1CCCC1` (stereo not given), with > 50 µM (inactive). The result for `COc1cc(C#N)c(NC(=NCc2ccc(F)cc2)SC)cc1OC` reads 49 µM; that for `CC(C)OC(=O)c1cc2c(ccn2-c2ccc(F)cc2)n1CC(=O)NC1CCCCC1`, > 50 µM (inactive). The result for `Cc1nc2nc(SCc3nc4ccccc4n3C)[nH]c2cc1Br` reads > 50 µM (inactive). `Cc1ccc(-n2nc(C(=O)Nc3ccc(C)cn3)c3ncn(C)c(=O)c32)cc1`: the half-maximal inhibitory concentration (IC50) was 2.1 µM. In the case of `O=C(NCc1ccc(Cl)cc1)Nc1cccc2ccccc12`, the IC50 was > 50 µM (inactive). Regarding `Cc1ccc(-n2c(-c3ccccc3)cn3c4c(=O)[nH]c(=O)n(C)c4nc23)cc1C`, the concentration for half-maximal inhibition (IC50) was 2 µM. The result for `O=C(COC(=O)c1ccc(CN2CCCC2=O)cc1)c1ccc2c(c1)OCCO2` reads > 50 µM (inactive); that for `CCN(CC)c1nc(F)c2c(c1F)S(=O)(=O)CCN2Cc1ccccc1`, > 50 µM (inactive). The result for `CCOC(=O)c1cnc(C(F)(F)F)nc1Sc1n[nH]c(-c2cccs2)n1` reads > 50 µM (inactive); that for `CS(=O)(=O)N1CCCc2cc(C(=O)Nc3ccc(Oc4ccccc4)cc3)ccc21`, > 50 µM (inactive); that for `O=C(COc1cccc(-n2cnnn2)c1)Nc1ccc2c(c1)OCCO2`, > 50 µM (inactive). Consider `O=C1NCCCC1Cc1ccc(-c2cccc(C(=O)N3CCc4ccccc4C3)c2)cc1` (stereo not given), for which the IC50 was > 50 µM (inactive). Regarding `O=[N+]([O-])c1ccc(NCC2COc3ccccc3O2)c(Cl)c1` (stereo not given), the IC50 is > 50 µM (inactive). Then `O=C(COC(=O)c1ccc(NS(=O)(=O)c2ccc3c(c2)OCCO3)cc1)NCc1ccc(Cl)cc1`, with > 50 µM (inactive); and `COc1cc(NC(=O)c2ccc3c(c2)OCO3)ccc1-c1cc2ccccc2oc1=O`, with > 50 µM (inactive); and `CC(C)OC(=O)c1cc2c(ccn2C)n1CC(=O)N1CCN(C(=O)c2ccco2)CC1`, with > 50 µM (inactive).

In the case of `N#Cc1c(N)nc2c(c1N)C(c1ccccc1)CO2` (stereo not given), the IC50 is > 50 µM (inactive). In the case of `Cc1ccc2nc(CNc3ccc(F)cc3C)cc(=O)n2c1`, the IC50 was > 50 µM (inactive). The result for `O=C(Nc1ccccc1)c1nc(-c2cn(Cc3ccc(F)cc3)nn2)no1` reads > 50 µM (inactive); that for `O=C(Nc1ccc(Br)cn1)c1nc2ccccc2nc1N1CCCCC1`, > 50 µM (inactive). For the compound `CN(C)c1ccc(C2CC(c3c(O)n(C)c(=O)[nH]c3=O)=Nc3ccccc3S2)cc1` (stereo not given), the IC50 was > 50 µM (inactive). The result for `COc1ccc(-n2c(SCC(=O)c3ccc(F)cc3)nnc2-c2cccnc2)cc1` reads 26.8 µM; that for `CSc1cccc(C(=O)Nc2ccc(-c3nc4ccccc4[nH]3)cc2)c1`, 21.7 µM. Regarding `COc1cc(C2SCC(=O)Nc3c2c(-c2ccccc2)nn3-c2ccccc2)cc(OC)c1OC` (stereo not given), the IC50 is > 50 µM (inactive). On to `CCCCOc1ccc(C(=O)Nc2ccc3c(c2)CCC(=O)N3CCC)cc1`, for which the IC50 was > 50 µM (inactive).

With `CN(C)c1ccc(CCN2CCc3nc4cccnc4cc3C2)cc1`, the IC50 was > 50 µM (inactive). Then `CN(CCCNC(=O)c1cccc2c1SCCC2=O)c1ccccc1`, with > 50 µM (inactive). The result for `Cc1ccc(Nc2nc(O)c(CC(=O)Nc3ccccc3C)s2)cc1C` reads 20 µM; that for `O=C(COc1nc2ccccc2nc1N1CCOCC1)Nc1cccc(S(=O)(=O)N2CCCCC2)c1`, > 50 µM (inactive); that for `COc1cccc(N2CCN(C(=O)Nc3ccc4c(c3)NC(=O)CO4)CC2)c1`, 22.4 µM. Then `Cc1nn(-c2nc3ccccc3[nH]2)c2c1C(c1cccs1)CC(=O)N2` (stereo not given), with > 50 µM (inactive); and `Cc1ccc(Nc2nc(NCCc3ccccc3)nc3c2cnn3C)cc1`, with > 50 µM (inactive); and `CCC(CC)n1[nH]c(=O)c2c1NC(=O)CSC2c1ccc2c(c1)OCO2` (stereo not given), with 19.3 µM.

Consider `Cc1ccc(-c2nc(-c3cccs3)cc(C(F)(F)F)c2C#N)cc1`, for which the IC50 is > 50 µM (inactive). Regarding `COc1ccc(CN=C2NS(=O)(=O)C(c3ccc(F)cc3)=C2C)cc1OC`, the IC50 was > 50 µM (inactive). Take `O=C1N[C@@H](Cc2ccccc2)C(=O)N2[C@H]3Nc4ccccc4[C@@]3([C@]34C[C@H]5C(=O)N[C@@H](Cc6ccccc6)C(=O)N5[C@H]3Nc3ccccc34)C[C@@H]12`: the IC50 is 47.6 µM. The result for `CCOC(=O)c1cn(C2CC2)c2cc(N3CCNCC3)c([N+](=O)[O-])cc2c1=O` reads > 50 µM (inactive); that for `Cn1cc(-c2noc(Cc3cccc(C(F)(F)F)c3)n2)ccc1=O`, > 50 µM (inactive). Then `COc1ccc(-c2nc(SCC(=O)Nc3ccc(Cl)cc3F)n[nH]2)cc1`, with > 50 µM (inactive). As for `CC1=C(c2ccc(C)c(C)c2)S(=O)(=O)NC1=NCC(=O)NCCCc1ccccc1`, the IC50 was 46.8 µM. Then `Cc1cc(Cl)ccc1NC(=O)c1cc(-c2cccnc2)n[nH]1`, with > 50 µM (inactive); and `Cc1cccc(-n2nc(C)c3c2NC(=O)CC3C(=O)c2cc3ccccc3o2)c1` (stereo not given), with 32 µM.

For `Cc1cccc(-c2noc(CCn3c(=O)[nH]c4ccccc4c3=O)n2)c1`, the IC50 was > 50 µM (inactive). `Cc1sc(-c2cccnc2)nc1OC(=O)c1ccc(Cl)c(Cl)c1`: the IC50 is > 50 µM (inactive).

With `COc1ccc2nc3c(cc2c1)c(=O)n(C)c1c3c(=O)n(-c2ccccc2)c(=O)n1-c1ccccc1`, the IC50 was > 50 µM (inactive). Turning to `O=C(CCc1nnc2n(Cc3ccc(F)cc3)c(=O)c3ccccc3n12)N1CCN(c2ccccn2)CC1`, the IC50 was > 50 µM (inactive). For the compound `CCOc1ccccc1NC(=O)COc1cc(OC)ccc1C(=O)c1ccccc1`, the IC50 was > 5 µM (inactive). Then `COc1ccccc1-c1nc(Cn2nnc(C(=O)Nc3cc(C)cc(C)c3)c2N)c(C)o1`, with > 50 µM (inactive). The result for `COc1ccccc1CNC(=O)Nc1cccc2ccccc12` reads 44.7 µM.

Regarding `Cc1ccccc1C(=O)OCCN1C(=O)c2cccc3c(N4CCOCC4)ccc(c23)C1=O`, the IC50 is > 50 µM (inactive).

In the case of `COCCCn1c(C(=O)NCCc2ccccc2)cc2c(=O)n3cccc(C)c3nc21`, the IC50 was > 50 µM (inactive).
